Reference: US8648105B2, “Diarylthiohydantoin compounds” (The Regents of the University of California, priority 2006, dated 2014)

Columns and labels:
Type in all cases: cell-based
Parameters in all cases: Fold induction, AR response reporter
AR [1] = target: T1, AR (Homo sapiens, UniProt P10275); conditions: AR over expressed LNCaP, absence of R1881
T1 sequence (P10275 1-920): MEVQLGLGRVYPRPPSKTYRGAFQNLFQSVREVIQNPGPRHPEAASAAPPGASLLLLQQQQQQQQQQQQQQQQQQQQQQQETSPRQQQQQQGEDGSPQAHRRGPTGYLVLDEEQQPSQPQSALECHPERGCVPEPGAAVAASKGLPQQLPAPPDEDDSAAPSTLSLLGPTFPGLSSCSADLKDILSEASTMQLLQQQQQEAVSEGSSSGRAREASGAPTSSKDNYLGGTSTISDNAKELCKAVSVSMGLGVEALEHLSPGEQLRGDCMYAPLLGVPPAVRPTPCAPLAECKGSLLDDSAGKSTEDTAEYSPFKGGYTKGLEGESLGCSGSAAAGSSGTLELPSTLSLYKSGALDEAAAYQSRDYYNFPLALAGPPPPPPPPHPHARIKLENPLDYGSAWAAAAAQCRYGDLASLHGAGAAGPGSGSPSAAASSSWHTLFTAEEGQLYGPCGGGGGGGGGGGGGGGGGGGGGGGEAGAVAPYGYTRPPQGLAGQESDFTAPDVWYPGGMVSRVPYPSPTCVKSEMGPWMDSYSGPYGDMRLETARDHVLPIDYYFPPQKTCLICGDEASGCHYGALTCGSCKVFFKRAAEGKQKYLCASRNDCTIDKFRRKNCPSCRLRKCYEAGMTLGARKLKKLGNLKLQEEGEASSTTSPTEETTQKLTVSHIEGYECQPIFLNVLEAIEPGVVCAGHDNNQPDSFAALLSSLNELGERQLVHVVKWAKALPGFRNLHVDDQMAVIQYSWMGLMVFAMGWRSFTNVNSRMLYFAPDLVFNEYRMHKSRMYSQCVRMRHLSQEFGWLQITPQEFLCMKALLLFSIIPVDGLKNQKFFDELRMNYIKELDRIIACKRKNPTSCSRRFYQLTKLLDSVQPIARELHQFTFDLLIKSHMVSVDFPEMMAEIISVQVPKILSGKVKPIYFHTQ

AR [2] = target: T1, AR; conditions: for inhibitory activity on AR response reporter: hormone refractory LNCaP-AR; for luciferase activity in LNCaP-AR cells: 125 nM to 1000 nM; for luciferase activity in LNCaP-AR cells / rank by relative luciferase activity, most active to least active: FIG. 3; for rank by relative luciferase activity, most active to least active: 500 nM
Procedure: The compounds were subjected to tests using an artificial AR response reporter system in a hormone refractory prostate cancer cell line. […] After two days of incubation, reporter activities were assayed.

AR [3] = target: T1, AR; conditions: LN-AR, absence of R1881
Procedure: Activities of AR response reporter were measured.

AR [4] = target: T1, AR; conditions: for rank by relative PSA level, most active to least active: 500 nM; for PSA levels of LN-AR cells: 100, 200, 500, and 1000 nM, FIG. 20
Procedure: It is well established that PSA levels are indicators of AR activities in prostate cancer. […] The LNCaP-AR cells are a line of lymph node carcinoma of prostate cells transduced with a plasmid that makes express androgen receptors. […] After four days incubation, secreted PSA levels were assayed using PSA ELISA kits (American Qualex, San Clemente, Calif.)

[5] = LN/AR cell line, 125 nmol to 1000 nmol

## CC1(C)C(=O)N(c2ccc(C#N)c(C(F)(F)F)c2)C(=S)N1CCCCO [Example 29, 4-[3-(4-hydroxybutyl)-4,4-dimethyl-5-oxo-2-thioxoimidazolidin-1-yl]-2-trifluoromethylbenzonitrile, reference compound]
AR [1]
  agonistic activity on secreted PSA: stimulated PSA expression
AR [2]; LNCaP-AR, 100 pM R1881, two days, No = did not inhibit AR response reporter
  IC50 (nM) Reporter: No (*)
AR [3]
  agonistic activity on AR response reporter: strongly activated AR

## CN1C(=S)N(c2ccc(C#N)c(C(F)(F)F)c2)C(=O)C12CCC2 [NC24, 4-(5-methyl-8-oxo-6-thioxo-5,7-diazaspiro[3.4]oct-7-yl)-2-trifluoromethylenzonitrile, reference compound]
AR [1]
  agonistic activity on secreted PSA: stimulated PSA expression
AR [2]
  inhibitory activity on AR response reporter: no inhibitory activities
AR [3]
  agonistic activity on AR response reporter: strongly activated AR

## CN1C(=O)N(c2ccc(C#N)c(C(F)(F)F)c2)C(=O)C12CCCC2 [NC27, 4-(1-methyl-2,4-dioxo-1,3-diaza-spiro[4.4]non-3-yl)-2-trifluoromethylbenzonitrile, reference compound]
AR [2]
  inhibitory activity on AR response reporter: no inhibitory activities
AR [3]
  agonistic activity on AR response reporter: strongly activated AR

## N#Cc1ccc(N2C(=O)C3(CCCC3)NC2=S)cc1C(F)(F)F [NC28, 4-(4-oxo-2-thioxo-1,3-diazaspiro[4.4]non-3-yl)-2-trifluoromethylbenzonitrile, reference compound]
AR [2]
  inhibitory activity on AR response reporter: no inhibitory activities
AR [3]
  agonistic activity on AR response reporter: strongly activated AR

## CCNC(=S)N=C1N(c2ccc(C#N)c(C(F)(F)F)c2)C(=S)N(c2ccc(C)cc2)C1(C)C [NC34, 1-[3-(4-cyano-3-trifluoromethyl-phenyl)-5,5-dimethyl-2-thioxo-1-p-tolyl-imidazolidin-4-ylidene]-3-ethyl-thiourea]
AR [1]
  agonistic activity on secreted PSA: no agonistic activities
AR [3]
  agonistic activity on AR response reporter: no agonistic activity

## Cc1ccc(N2C(=S)N(c3ccc(C#N)c(C(F)(F)F)c3)C(=NC(=S)Nc3ccccc3)C23CCC3)cc1 [NC35, 1-[7-(4-cyano-3-trifluoromethyl-phenyl)-6-thioxo-5-p-tolyl-5,7-diaza-spiro[3.4]oct-8-ylidene]-3-phenyl-thiourea]
AR [1]
  agonistic activity on secreted PSA: no agonistic activities
AR [3]
  agonistic activity on AR response reporter: no agonistic activity

## Cc1ccc(N2C(=S)N(c3ccc(C#N)c(C(F)(F)F)c3)C(=NC(=S)Nc3ccc(C#N)c(C(F)(F)F)c3)C23CCC3)cc1 [NC36, 1-(4-Cyano-3-trifluoromethyl-phenyl)-3-[7-(4-cyano-3-trifluoromethyl-phenyl)-6-thioxo-5-p-tolyl-5,7-diaza-spiro[3.4]oct-8-ylidene]-thiourea]
AR [1]
  agonistic activity on secreted PSA: no agonistic activities
AR [3]
  agonistic activity on AR response reporter: no agonistic activity

## N#Cc1ccc(N2C(=O)C3(CCC3)N(c3ccc(CCC(N)=O)cc3)C2=S)cc1C(F)(F)F [NC43, 3-{4-[7-(4-cyano-3-trifluoromethylphenyl)-8-oxo-6-thioxo-5,7-diaza-spiro[3.4]oct-5-yl]-phenyl}-propionamide]
AR [4]
  decrease in PSA level of LNCaP-AR cells (comparison): greater decrease in PSA level of LNCaP-AR cells than NC45 and NC49
  rank by relative PSA level, most active to least active: NC50>NC48>NC7>NC43>NC44>NC49>NC50>NC45>bicalutamide

## CNC(=O)CCc1ccc(N2C(=S)N(c3ccc(C#N)c(C(F)(F)F)c3)C(=O)C23CCC3)cc1 [NC44, 3-{4-[7-(4-Cyano-3-trifluoromethylphenyl)-8-oxo-6-thioxo-5,7-diaza-spiro[3.4]oct-5-yl]-phenyl}-N-methyl-propionamide]
AR [4]
  decrease in PSA level of LNCaP-AR cells (comparison): greater decrease in PSA level of LNCaP-AR cells than NC45 and NC49
  rank by relative PSA level, most active to least active: NC50>NC48>NC7>NC43>NC44>NC49>NC50>NC45>bicalutamide

## N#Cc1ccc(N2C(=O)C3(CCC3)N(c3ccc(CCC(=O)NCCO)cc3)C2=S)cc1C(F)(F)F [NC45, 3-{4-[7-(4-cyano-3-trifluoromethylphenyl)-8-oxo-6-thioxo-5,7-diaza-spiro[3.4]oct-5-yl]-phenyl}-N-(2-hydroxyethyl)-propionamide]
AR [4]
  decrease in PSA level of LNCaP-AR cells (comparison): greater decrease in PSA level than bicalutamide
  rank by relative PSA level, most active to least active: NC50>NC48>NC7>NC43>NC44>NC49>NC50>NC45>bicalutamide

## N#Cc1ccc(N2C(=O)C3(CCC3)N(c3ccc(CCCC(N)=O)cc3)C2=S)cc1C(F)(F)F [NC47, 4-{4-[7-(4-Cyano-3-trifluoromethylphenyl)-8-oxo-6-thioxo-5,7-diaza-spiro[3.4]oct-5-yl]-phenyl}-butyramide]
AR [4]; [5]
  PSA level (comparison): less than the PSA level upon exposure to NC42 and NC46

## N#Cc1ccc(N2C(=O)C3(CCC3)N(c3ccc(N4CCNCC4)cc3)C2=S)cc1C(F)(F)F [NC49, 4-[8-Oxo-5-(4-piperazin-1-yl-phenyl)-6-thioxo-5,7-diazaspiro[3.4]oct-7-yl]-2-trifluoromethylbenzonitrile]
AR [4]
  decrease in PSA level of LNCaP-AR cells (comparison): greater decrease in PSA level than bicalutamide
  rank by relative PSA level, most active to least active: NC50>NC48>NC7>NC43>NC44>NC49>NC50>NC45>bicalutamide

## CS(=O)(=O)N1CCN(c2ccc(N3C(=S)N(c4ccc(C#N)c(C(F)(F)F)c4)C(=O)C34CCC4)cc2)CC1 [NC50, 4-{5-[4-(4-methanesulfonylpiperazin-1-yl)-phenyl]-8-oxo-6-thioxo-5,7-diazaspiro[3.4]oct-7-yl}-2-trifluoromethylbenzonitrile]
AR [4]
  decrease in PSA level of LNCaP-AR cells (comparison): greater decrease in PSA level of LNCaP-AR cells than NC45 and NC49
  rank by relative PSA level, most active to least active: NC50>NC48>NC7>NC43>NC44>NC49>NC50>NC45>bicalutamide

## CNC(=O)c1ccc(N2C(=S)N(c3ccc(C#N)c(C(F)(F)F)c3)C(=O)C23CCCC3)cc1F [NC55, 4-(3-(4-Cyano-3-(trifluoromethyl)phenyl)-4-oxo-2-thioxo-1,3-diazaspiro[4.4]nonan-1-yl)-2-fluoro-N-methylbenzamide]
AR [4]
  PSA levels of LN-AR cells: PSA levels of LN-AR cells decreased

## CN(C)C(=O)CCCc1ccc(N2C(=S)N(c3ccc(C#N)c(C(F)(F)F)c3)C(=O)C23CCC3)cc1 [NC56, 4-(4-(7-(4-Cyano-3-(trifluoromethyl)phenyl)-8-oxo-6-thioxo-5,7-diazaspiro[3.4]octan-5-yl)phenyl)-N,N-dimethylbutanamide]
AR [4]
  PSA levels of LN-AR cells: PSA levels of LN-AR cells decreased

## N#CCCCc1ccc(N2C(=S)N(c3ccc(C#N)c(C(F)(F)F)c3)C(=O)C23CCC3)cc1 [NC57, 4-(5-(4-(3-Cyanopropyl)phenyl)-8-oxo-6-thioxo-5,7-diazaspiro[3.4]octan-7-yl)-2-(trifluoromethyl)benzonitrile]
AR [4]
  PSA levels of LN-AR cells: PSA levels of LN-AR cells decreased

## CS(=O)(=O)c1ccc(N2C(=S)N(c3ccc(C#N)c(C(F)(F)F)c3)C(=O)C23CCC3)cc1 [NC66]
AR [2]
  luciferase activity in LNCaP-AR cells: acted to reduce luciferase activity
  rank by relative luciferase activity, most active to least active: NC67>NC68>NC66>NC69>NC77=NC53>bicalutamide

## COC(=O)c1ccc(N2C(=S)N(c3ccc(C#N)c(C(F)(F)F)c3)C(=O)C2(C)C)cc1 [NC67]
AR [2]
  luciferase activity in LNCaP-AR cells: acted to reduce luciferase activity
  rank by relative luciferase activity, most active to least active: NC67>NC68>NC66>NC69>NC77=NC53>bicalutamide

## CNC(=O)c1ccc(N2C(=S)N(c3ccc(C#N)c(C(F)(F)F)c3)C(=O)C2(C)C)cc1 [NC68]
AR [2]
  luciferase activity in LNCaP-AR cells: acted to reduce luciferase activity
  rank by relative luciferase activity, most active to least active: NC67>NC68>NC66>NC69>NC77=NC53>bicalutamide
AR [2]; [5]
  luciferase activity (comparison): less than the luciferase activity upon exposure to NC103

## N#Cc1ccc(N2C(=O)C3(CCC3)N(c3ccc(O)cc3F)C2=S)cc1C(F)(F)F [NC69]
AR [2]
  luciferase activity in LNCaP-AR cells: acted to reduce luciferase activity
  rank by relative luciferase activity, most active to least active: NC67>NC68>NC66>NC69>NC77=NC53>bicalutamide
